Legend:
catalytic domain of Pin1 = target: T1, catalytic domain of Pin1 (Homo sapiens, UniProt Q13526); assay: Intact protein LC/MS labeling of Pin1; format: binding
T1 construct: The purified catalytic domain of Pin1 was incubated with the fragment library
Method: 993 compounds were transferred to a 384-well plate working copy by combining 0.5 μl of 20 mM stock solution of four or five compounds per well. The catalytic domain of Pin1 (2 μM) in 20 mM Tris, 75 mM NaCl, pH 7.5 was incubated with 200 μM for each compound and moderately shaken for 24 hours at 4° C. The reaction was stopped by the addition of formic acid to 0.4% (v/v) final concentration.
Liquid chromatography/mass spectroscopy runs were performed on an Acquity™ UPLC® H-class system (Waters) in positive ion mode using electrospray ionization (ESI). UPLC separation was performed on a C4 column (300 Å, 1.7 μM, […]). The column was held at 40° C., and the autosampler at 10° C. Mobile solution A was 0.1% formic acid in water and mobile phase B was 0.1% formic acid in acetonitrile. Run flow was 0.4 ml/minute; and a gradient of 20% B for 2 minutes, increasing linearly to 60% B for 3 minutes, holding at 60% B for 1.5 minutes, changing to 0% B in 0.1 minute and holding at 0% for 1.4 minutes, was used. Desolvation temperature was 500° C. with a flow rate of 1000 liters/hour. The capillary voltage was 0.69 kV and cone voltage 46 V. Raw data was processed using OpenLynx™ software and deconvoluted using the MaxEnt tool. Labeling assignment was performed as described in Resnick et al. [J Am Chem Soc 2019, 141:8951-8968].
For the screening 2 μl of each of the 448 click products as 50 μM DMSO stocks were transferred into a 384-well plate working plate. 48 μl of catalytic domain of Pin1 (2 μM) in 20 mM Tris (pH 7.5) with 75 mM NaCl were added and moderately shaken and incubated for 15 minutes at room temperature. The reaction was stopped by the addition of formic acid to 0.4% (v/v) final concentration (20 μl). The mixtures were analyzed by liquid chromatography/mass spectroscopy analogously to the electrophile library incubations described herein. Hits were retrospectively analyzed by liquid chromatography/mass spectroscopy (LC-MS) to ensure reaction completion.
For each measured well, processed peaks were searched to match the mass of unlabeled protein or common small adducts of the unlabeled protein, which were found in the control sample or labeled protein. Labeling percentage for a compound was determined as the labeling of a specific compound divided by the overall detected protein species. Peaks whose mass could not be assigned were discarded from the overall labeling calculation. Data was analyzed using a python script for processing the MaxEnt-deconvoluted spectra. Peaks were normalized from ion counts to percentages, where the highest peak is defined as 100%. The unlabeled protein mass is deduced from a reference well that contains just the protein.
The purified catalytic domain of Pin1 was incubated with the fragment library (2 μM protein, 200 μM compound; 24 hours at 4° C.), followed by intact protein liquid chromatography/mass-spectrometry (LC/MS) to identify and quantify compound labeling. FIG. 1 depicts an example of a compound identified in this manner.
Based on the docking predictions, a total of 26 compounds that featured a range of small or bulky aliphatic, arylic, biphenylic or heterocyclic side-chains (structures depicted in FIG. 5), were synthesized or purchased. In order to identify potent binders, the irreversible labeling efficiency of these second-generation compounds was assessed alongside the original screening hits under more stringent conditions, with a 1:1 ratio of protein to compound (2 μM compound; 1 hour at room temperature).
For further optimization of the lipophilic moiety, an alkyne side chain-bearing analog was prepared, which was derivatized with 448 different azides using copper-catalyzed azide-alkyne cycloaddition (CuAAC).

[1] = Thiol reactivity assay (DTNB); format: physicochemical; conditions: 200 μM compound, pH 7.4, 37° C.
Method: 50 μM DTNB (dithionitrobenzoic acid) was incubated with 200 μM TCEP (tris(2-carboxytehyl)phosphine) in 20 mM sodium phosphate buffer (pH 7.4) with 150 mM NaCl, for 5 minutes at room temperature, in order to obtain TNB^2− (thionitrobenzoate dianion). 200 μM compounds were subsequently added to the TNB^2−, followed by immediate UV absorbance measurement at 412 nm (at 37° C.). The UV absorbance was acquired every 15 minutes for 7 hours. The assay was performed in a 384-well plate using a Spark™ 10M plate reader (Tecan). Background absorbance of compounds was subtracted by measuring the absorbance at 412 nm of each compound under the same conditions without DTNB. Compounds were measured in triplicates. The data was fitted to a second order reaction equation such that the rate constant k is the slope of ln([A][B0]/[B][A0]), where [A0] and [B0] are the initial concentrations of the compound (200 μM) and TNB^2− (100 μM) respectively, and [A] and [B] are the remaining concentrations as a function of time, as determined from the spectrometric measurement. Linear regression using Prism® software was performed to fit the rate against the first four hours of measurements.
In order to estimate the influence of the various lipophilic moieties on “warhead” reactivity [Flanagan et al., J Med Chem 2014, 57:10072-10079; Lonsdale et al., J Chem Inf Model 2017, 57:3124-3137; Dahal et al., Medchemcomm 2016, 7:864-872], the thiol reactivity of the top ten binders of the second and third generation was assessed using a high-throughput assay previously applied to the entire fragment library, as described in Resnick et al. [J Am Chem Soc 2019, 141:8951-8968]. In brief, the second-order rate constant was evaluated for a model thiol, which reflects trends in general reactivity towards thiol groups.

[2] = 2 μM Pin1 with 200 μM test compound for 24 hours at 4° C.
[3] = 2 μM Pin1 with 2 μM test compound for 1 hour at room temperature
[4] = 2 μM Pin1 with 2 μM test compound for 15 minutes at room temperature

T1 sequence (Q13526 52-163 limits assumed): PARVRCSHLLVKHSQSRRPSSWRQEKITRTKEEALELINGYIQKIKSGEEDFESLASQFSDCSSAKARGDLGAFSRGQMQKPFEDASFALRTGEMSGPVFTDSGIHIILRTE

Structure (SMILES)	Labeling [%] (catalytic domain of Pin1; [2])	Labeling [%] (catalytic domain of Pin1; [3])	Reactivity Log k [1]	Reactivity k [1] [M⁻¹ s⁻¹]	Labeling [%] (catalytic domain of Pin1; [4])
O=C(CCl)N(c1ccc(F)cc1)C1C=CS(=O)(=O)C1 (stereo not shown) [PCM-0102868]	100	–	–	–	–
O=C(CCl)NCC1CCS(=O)(=O)C1 (stereo not shown) [PCM-0102896]	42	–	–	–	–
O=C(CCl)N(Cc1ccco1)C1CCS(=O)(=O)C1 (stereo not shown) [Pin1-128]	–	25	−6.83	1.47e-07	–
O=C(CCl)N(Cc1ccccc1-c1cccc(C(F)(F)F)c1)C1CCS(=O)(=O)C1 (stereo not shown) [Pin1-3-8]	–	23	−7.09	8.22e-08	–
O=C(CCl)N(C1CC1)C1CCS(=O)(=O)C1 (stereo not shown) [PCM-0102832]	72	–	−7.22	6.02e-08	–
CCCN(C(=O)CCl)C1CCS(=O)(=O)C1 (stereo not shown) [Pin1-028]	–	16	−6.80	1.59e-07	–
Cc1ccc(N(C(=O)CCl)C2C=CS(=O)(=O)C2)cc1 (stereo not shown) [PCM-0102539]	100	–	–	–	–
COc1ccc(-n2cc(CN(C(=O)CCl)C3CCS(=O)(=O)C3)nn2)cc1 (stereo not shown) [Compound P1-04-B02]	–	–	−5.76	1.73e-06	69
COC(=O)c1ccc(-n2cc(CN(C(=O)CCl)C3CCS(=O)(=O)C3)nn2)cc1 (stereo not shown) [Compound P1-01-B11]	–	–	−6.86	1.37e-07	89
CC1(NC(=O)CCl)CCS(=O)(=O)C1 (stereo not shown) [PCM-0102230]	87	0	−7.05	8.87e-08	–
O=C(CCl)N(Cc1cn(-c2ccc(CO)cc2)nn1)C1CCS(=O)(=O)C1 (stereo not shown) [Compound P1-02-H08]	–	–	−5.88	1.32e-06	73
O=C(CCl)N(Cc1cccc(Cl)c1)C1CCS(=O)(=O)C1 (stereo not shown) [Pin1-2-11]	–	19	−6.94	1.15e-07	–
O=C(CCl)N(c1ccccc1)C1CCS(=O)(=O)C1 (stereo not shown) [PCM-0102755]	83	–	−6.81	1.54e-07	–
O=C(CCl)N(CC1CCCC1)C1CCS(=O)(=O)C1 (stereo not shown) [Pin1-3-14, 2-chloro-N-(sulfolan-3-yl)-N-(cyclopentylmethyl)acetamide]	–	–	−7.15	7.03e-08	–
CC(=O)c1ccc(-n2cc(CN(C(=O)CCl)C3CCS(=O)(=O)C3)nn2)cc1 (stereo not shown) [Compound P1-02-B04]	–	–	−5.90	1.26e-06	62
O=C(CCl)N(Cc1cn(-c2ccc(CO)c(F)c2)nn1)C1CCS(=O)(=O)C1 (stereo not shown) [Compound P1-01-F08]	–	–	−5.88	1.32e-06	64
O=C(CCl)N(Cc1cn(-c2cc(Br)ccc2O)nn1)C1CCS(=O)(=O)C1 (stereo not shown) [Compound P1-02-E11]	–	–	−5.98	1.04e-06	70
CC(c1ccccc1)N(C(=O)CCl)C1CCS(=O)(=O)C1 (stereo not shown) [Pin1-2-2]	–	27	−7.09	8.06e-08	–
O=C(CCl)N(Cc1cccc(F)c1)C1CCS(=O)(=O)C1 (stereo not shown) [Pin1-2-5]	–	24	−6.88	1.31e-07	–
CC(C)CN(C(=O)CCl)C1CCS(=O)(=O)C1 (stereo not shown) [Pin1-3-15, 2-chloro-N-(sulfolan-3-yl)-N-isobutylacetamide]	–	21	−7.11	7.77e-08	–
NS(=O)(=O)c1ccc(-n2cc(CN(C(=O)CCl)C3CCS(=O)(=O)C3)nn2)cc1 (stereo not shown) [Compound P1-03-G07]	–	–	−5.86	1.37e-06	73
O=C(CCl)N(C1CCCCC1)C1CCS(=O)(=O)C1 (stereo not shown) [PCM-0102760]	100	–	−7.00	1e-07	–
O=C(CCl)N(Cc1cn(-c2cccc(Cl)c2)nn1)C1CCS(=O)(=O)C1 (stereo not shown) [Compound P1-01-G10]	–	–	−6.92	1.2e-07	67
O=C(CCl)N(C1CCCC1)C1CCS(=O)(=O)C1 (stereo not shown) [PCM-0102313]	83	–	−6.97	1.07e-07	–
Cc1cccc(N(C(=O)CCl)C2C=CS(=O)(=O)C2)c1 (stereo not shown) [PCM-0102579]	100	–	–	–	–
O=C(CCl)N(c1ccccc1)C1C=CS(=O)(=O)C1 (stereo not shown) [PCM-0102372]	100	–	–	–	–
CC(C)(C)CN(C(=O)CCl)C1(C)CCS(=O)(=O)C1 (stereo not shown) [Pin1-18]	–	–	−7.77	1.69e-08	–
O=C(CCl)N(Cc1ccccc1)C1CCS(=O)(=O)C1 (stereo not shown) [Pin1-437]	–	–	−6.82	1.51e-07	–
Cc1ccc(N(C(=O)CCl)C2C=CS(=O)(=O)C2)cc1C (stereo not shown) [PCM-0103082]	69	–	–	–	–
